Reference: US20240390362A1, “METHODS OF TREATING ERYTHROPOIETIC PROTOPORPHYRIA, X-LINKED PROTOPORPHYRIA, OR CONGENITAL ERYTHROPOIETIC PORPHYRIA WITH A SOLID FORM OF BITOPERTIN” (Disc Medicine, Inc., priority 2021, published 2024)

Key:
Type in all cases: cell-based
K562 clone-9 cells = assay: Cell viability by Vi-CELL XR Complete System in EPP K562 model; conditions: 96 hours incubation
Procedure: 900 μL of K562 clone-9 cells at 2×10^5 cells/mL in IMDM media with 10% FBS and 1% PS were plated into a 24-well plate. After 24-hour incubation, 100 μL of compound in DMSO/media was added in different concentration. The final concentration of DMSO was 0.1%. The compound was incubated for 96 hours at 37° C. Cell viability and cell count were measured by Vi-CELL XR Complete System. Finally, the effect of the compound on PPIX level was determined by flow cytometry.

clone 1-9 cells = assay: LC/MS/MS of 5-ALA, PPIX and heme levels in the EPP K562 cellular model
[1] = tested on: human cord blood-CD34+ cells; assay: CD34+ cells transduced with FECH shRNA lentivirus, differentiated to erythroid cells; flow cytometry of PPIX and surface markers; conditions: 100 nM, 9 days differentiation
Procedure: To investigate the effects of GlyT1 inhibitors in human hematopoietic stem cells with an EPP phenotype, lentiviral vectors expressing shRNA of FECH were constructed (Table 4) and transduced at 25 MOI into human cord blood-CD34+ cells purchased from Stemexpress.
Transduced CD34+ cells were differentiated in the presence of Bitopertin (100 nM) or DMSO control into erythroid cells for 9 days in StemSpan SFEM II media supplemented with StemSpan Erythroid Expansion Supplement. The erythroid cell antigen profile was analyzed using cytofluorimetric strategy with the following surface markers: CD71 (PE Mouse Anti-Human CD71, BD Biosciences), glycophoryin A (APC Mouse Anti-Human CD235a, BD Biosciences).

For `C[C@H](Oc1ccc(S(C)(=O)=O)cc1C(=O)N1CCN(c2ncc(C(F)(F)F)cc2F)CC1)C(F)(F)F` [Bitopertin, [4-(3-fluoro-5-trifluoromethylpyridin-2-yl)piperazin-1-yl][5-methylsulfonyl-2-[((S)-2,2,2-trifluoro-1-methylethyl)oxy]phenyl]methanone], the “effect on cell viability” value (K562 clone-9 cells) was “no negative effects”, the “effect on Heme formation” value (clone 1-9 cells) was “minimal effect” and the “effect on erythroid cell surface markers (CD71, glycophorin A)” value [1] was “no negative effects”.
